From patent US12629401B2, “Method for preparing ginseng extract enriched with rare ginsenosides and applications thereof” (priority 2023, dated 2026)

Tested on: SD1347 nematodes
Experiment: Mitochondrial health test: muscle fragmentation score by confocal microscopy
Format: in vivo, C. hidradenitis elegans nematodes
Details: 100 μg/mL JadeAging, 11.4 μg/mL urolithin A
Excerpt: Skeletal sarcopenia is an age-related loss of muscle and strength. Muscle mitochondrial dysfunction is observed at the onset of skeletal sarcopenia, followed by alterations in skeletal muscle segmental architecture, ultimately leading to decreased movement. In recent years, clinical studies have shown that urolithin A improves mitochondrial health and alleviates muscle decline due to aging. In the present study, the fluorescently labeled myocyte nuclei and mitochondria of […] were used to assess whether JadeAging could ameliorate age-related dysfunction.
METHODS: SD1347 C. hidradenitis elegans nematodes were treated with JadeAging and fluorescently labeled with muscle nuclei and mitochondria, and muscle and mitochondrial health were assessed using confocal microscopy on days 2, 9, and 12 of the adult stage of C. hidradenitis elegans. […]
Maximum intensity projected confocal images of adult […] animals on days 2, 9 and 12 are shown in FIG. 11, all images are from the “head” region. Healthy muscles, i.e., those of the blank group (VC group), are marked by arrows in the day 2 images and are uniformly streaked; those of the blank group (VC group) are marked by arrows in the day 12 images and show uneven fluorescence. […]

In the case of O=c1oc2cc(O)ccc2c2ccc(O)cc12 [urolithin A], the “protective effect against age-related skeletal muscle reduction (mean fragmentation scores)” value (FIG. 13) is reported as “significant protective effect” and the “mitochondrial health (change of fragmentation score distribution with age)” value (days 2, 9, 12, FIG. 12) is reported as “superior to that of the blank group (VC group)”.
